Our source for the EC50 values is patent publication US8772323B2, “Benzoxazole- and tetrahydrobenzoxazole-substituted pyridazinones as GPR119 agonists” (Boehringer Ingelheim International GmbH, priority 2010, dated 2014).

For orientation: EC50 means the concentration that produces a half-maximal response. A higher EC50 goes with a less potent agent.

Structures can show the parent of a compound that is named as a salt. Where only a bound is given, the exact number is not on record here.

This test deals with human GPR119 (Homo sapiens (Human), UniProt Q8TDV5). Put plainly: AlphaScreen cAMP assay in Min-6/hGPR119 cells (GPR119 activation, intracellular cAMP). The following applies: MIN6 cells stably transfected with human GPR119; 45 minutes' incubation at RT; AlphaScreen cAMP Assay Kit. The test is classed as cell-based. The procedure, abridged:
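MIN6 cells stably expressing human GPR119 plated 10000 cells/well and held 24 h at 37° C. Compounds applied in stimulating buffer, pH 7.4, with 0.5 mM IBMX, 0.1% BSA, 1% DMSO final, for 45 min at RT. Intracellular cAMP read by AlphaScreen.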
(Bead proximity is the source of the signal in Alpha formats.)

Sequence of human GPR119 (Q8TDV5 whole entry): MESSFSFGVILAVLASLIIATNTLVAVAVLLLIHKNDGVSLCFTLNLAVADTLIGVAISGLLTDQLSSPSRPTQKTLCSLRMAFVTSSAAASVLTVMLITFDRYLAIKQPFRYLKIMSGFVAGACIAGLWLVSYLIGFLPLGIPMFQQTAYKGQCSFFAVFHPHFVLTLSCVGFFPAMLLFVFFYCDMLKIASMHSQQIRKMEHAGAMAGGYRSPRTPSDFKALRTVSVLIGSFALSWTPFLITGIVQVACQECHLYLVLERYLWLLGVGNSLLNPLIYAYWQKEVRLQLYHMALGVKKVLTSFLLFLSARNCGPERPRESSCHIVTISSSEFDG

Turning to `O=C1NN=C([C@H]2CCc3nc(-c4ccccc4)oc3C2)[C@@H]2C[C@H]12` [Example 133, (1S,6R)-5-((S)-2-phenyl-4,5,6,7-tetrahydro-benzoxazol-6-yl)-3,4-diaza-bicyclo[4.1.0]hept-4-en-2-one], it took 300 nM to reach a half-maximal effect (EC50).

In turn, `O=C1NN=C([C@@H]2CCc3nc(-c4ccccc4)oc3C2)[C@@H]2C[C@H]12` [Example 134, (1S,6R)-5-((R)-2-phenyl-4,5,6,7-tetrahydro-benzoxazol-6-yl)-3,4-diaza-bicyclo[4.1.0]hept-4-en-2-one] had an EC50 of 1630 nM. This EC50 is about 5.4-fold higher than that of the compound before.

Take `O=C1NN=C(N2CCc3nc(-c4ccccc4)oc3C2)C2CC12` (stereo not shown) [Example 135, 5-(2-phenyl-4,5,6,7-tetrahydro-4H-oxazolo[5,4-c]pyridin-5-yl)-3,4-diaza-bicyclo[4.1.0]hept-4-en-2-one]: the EC50 is 391 nM. This EC50 lies about 4.2-fold lower than the previous one.

`O=C1NN=C(c2ccc3nc(Cc4ccccc4)oc3c2)C2CC12` (stereo not shown) [Example 136, 5-(2-benzyl-benzoxazol-6-yl)-3,4-diaza-bicyclo[4.1.0]hept-4-en-2-one] gave an EC50 of 2020 nM.

Compound `O=C1NN=C(c2ccc3nc(-c4ccc(OCCN5CCOCC5)cc4)oc3c2)C2CC12` (stereo not shown) [Example 137, 5-{2-[4-(2-morpholin-4-yl-ethoxy)-phenyl]-benzoxazol-6-yl}-3,4-diaza-bicyclo[4.1.0]hept-4-en-2-one] showed a half-maximal effective concentration (EC50) of 497 nM.

As to `O=C1CC(C2CC2)C(N2CCc3nc(-c4ccccc4)oc3C2)=NN1` (stereo not shown) [Example 138, 5-cyclopropyl-6-(2-phenyl-6,7-dihydro-4H-oxazolo[5,4-c]pyridin-5-yl)-4,5-dihydro-2H-pyridazin-3-one], the EC50 turned out to be 1310 nM. This EC50 lies about 2.6-fold higher than the previous one.

Take `CC1CC(c2ccc3nc(-c4cccs4)oc3c2)=NNC1=O` (stereo not shown) [Example 139, 4-methyl-6-(2-thiophen-2-yl-benzoxazol-6-yl)-4,5-dihydro-2H-pyridazin-3-one]: the EC50 was found to be 1560 nM. This EC50 and that of the compound before are within 1.5-fold of each other.

`CCCCC1CC(c2ccc3nc(-c4cccs4)oc3c2)=NNC1=O` (stereo not shown) [Example 140, 4-butyl-6-(2-thiophen-2-yl-benzoxazol-6-yl)-4,5-dihydro-2H-pyridazin-3-one] showed an EC50 of over 10000 nM.

`CCC1CC(c2ccc3nc(-c4cccs4)oc3c2)=NNC1=O` (stereo not shown) [Example 141, 4-ethyl-6-(2-thiophen-2-yl-benzoxazol-6-yl)-4,5-dihydro-2H-pyridazin-3-one] registered an EC50 of 7330 nM. This counts as single-digit micromolar.

`CC1NC(=O)NN=C1c1ccc2nc(-c3ccccc3)oc2c1` (stereo not shown) [Example 142, 5-methyl-6-(2-phenyl-benzoxazol-6-yl)-4,5-dihydro-2H-[1,2,4]triazin-3-one] yielded an EC50 of 539 nM.

`O=C1NCC(c2ccc3nc(-c4ccccc4)oc3c2)=NN1` [Example 143, 6-(2-phenyl-benzoxazol-6-yl)-4,5-dihydro-2H-[1,2,4]triazin-3-one] came in with an EC50 of 397 nM.

The compound `CCC1NC(=O)NN=C1c1ccc2nc(-c3ccccc3)oc2c1` (stereo not shown) [Example 144, 5-ethyl-6-(2-phenyl-benzoxazol-6-yl)-4,5-dihydro-2H-[1,2,4]triazin-3-one] returned a 50% effective concentration (EC50) of 987 nM.

The compound `CC[C@H]1C(c2ccc3nc(-c4ccccc4)oc3c2)=NNC(=O)[C@H]1C` [Example 146, (4S,5R)-5-ethyl-4-methyl-6-(2-phenyl-1,3-benzoxazol-6-yl)-2,3,4,5-tetrahydropyridazin-3-one] registered an EC50 of 8850 nM.

Regarding `CC[C@H]1C(c2ccc3nc(-c4ccccc4)oc3c2)=NNC(=O)[C@@H]1C` [Example 147, (4R,5R)-5-ethyl-4-methyl-6-(2-phenyl-1,3-benzoxazol-6-yl)-2,3,4,5-tetrahydropyridazin-3-one], a half-maximal effect (EC50) was put at 79 nM.

The compound `CCC1CC(=O)NN=C1c1ccc2nc(-c3cccc(OCCN4CCCCC4)c3)oc2c1` (stereo not shown) [Example 148, 5-ethyl-6-{2-[3-(2-piperidin-1-yl-ethoxy)-phenyl]-benzoxazol-6-yl}-4,5-dihydro-2H-pyridazin-3-one] returned an EC50 of 1560 nM.

The compound `CCC1CC(=O)NN=C1c1ccc2nc(-c3cccc(OCCN4CCCCCC4)c3)oc2c1` (stereo not shown) [Example 149, 6-{2-[3-(2-azepan-1-yl-ethoxy)-phenyl]-benzoxazol-6-yl}-5-ethyl-4,5-dihydro-2H-pyridazin-3-one] displayed an EC50 of 567 nM.

With `CCC1CC(=O)NN=C1c1ccc2nc(-c3cccc(OCc4ccncc4)c3)oc2c1` (stereo not shown) [Example 150, 5-ethyl-6-{2-[3-(pyridin-4-ylmethoxy)-phenyl]-benzoxazol-6-yl}-4,5-dihydro-2H-pyridazin-3-one], the EC50 came to 1260 nM.

Consider `CCC1CC(=O)NN=C1c1ccc2nc(-c3cccc(OCCN4C(C)(C)CCCC4(C)C)c3)oc2c1` (stereo not shown) [Example 151, 5-ethyl-6-(2-{3-[2-(2,2,6,6-tetramethyl-piperidin-1-yl)-ethoxy]-phenyl}-benzoxazol-6-yl)-4,5-dihydro-2H-pyridazin-3-one], for which it took 116 nM to reach a half-maximal effect (EC50).

`CCC1CC(=O)NN=C1c1ccc2nc(-c3cccc(OCCCN4CCCCC4)c3)oc2c1` (stereo not shown) [Example 152, 5-ethyl-6-{2-[3-(3-piperidin-1-yl-propoxy)-phenyl]-benzoxazol-6-yl}-4,5-dihydro-2H-pyridazin-3-one] had an EC50 of 1080 nM.

Compound `CCC1CC(=O)NN=C1c1ccc2nc(-c3cccc(OCCN4CCC(C#N)CC4)c3)oc2c1` (stereo not shown) [Example 153, 1-(2-{3-[6-(4-ethyl-6-oxo-1,4,5,6-tetrahydro-pyridazin-3-yl)-benzoxazol-2-yl]-phenoxy}-ethyl)-piperidine-4-carbonitrile] yielded an EC50 of 735 nM.

The compound `CCC1CC(=O)NN=C1c1ccc2nc(-c3cccc(OCCN(C(C)C)C(C)C)c3)oc2c1` (stereo not shown) [Example 154, 6-{2-[3-(2-diisopropylamino-ethoxy)-phenyl]-benzoxazol-6-yl}-5-ethyl-4,5-dihydro-2H-pyridazin-3-one] displayed an EC50 of 424 nM. Against the preceding compound, the EC50 is about 1.7-fold lower.

`CCC1CC(=O)NN=C1c1ccc2nc(-c3cccc(OCCN4CCN(C(=O)OC(C)(C)C)CC4)c3)oc2c1` (stereo not shown) [Example 155, tert-butyl 4-(2-{3-[6-(4-ethyl-6-oxo-1,4,5,6-tetrahydro-pyridazin-3-yl)-benzoxazol-2-yl]-phenoxy}-ethyl)-piperazine-1-carboxylate] registered an EC50 of 7750 nM. This EC50 lies about 18-fold higher than the previous one.

As for `CCC1CC(=O)NN=C1c1ccc2nc(-c3cccc(OCCN(CC(C)C)CC(C)C)c3)oc2c1` (stereo not shown) [Example 156, 6-{2-[3-(2-diisobutylamino-ethoxy)-phenyl]-benzoxazol-6-yl}-5-ethyl-4,5-dihydro-2H-pyridazin-3-one], the EC50 was 248 nM.

Take `CCC1CC(=O)NN=C1c1ccc2nc(-c3cccc(OCCN4CCN(C(C)CC)CC4)c3)oc2c1` (stereo not shown) [Example 157, 6-(2-{3-[2-(4-sec-butyl-piperazin-1-yl)-ethoxy]-phenyl}-benzoxazol-6-yl)-5-ethyl-4,5-dihydro-2H-pyridazin-3-one]: the concentration giving a half-maximal response (EC50) was determined as 2030 nM.

With `CCC1CC(=O)NN=C1c1ccc2nc(-c3ccc(OCc4ccc(S(C)(=O)=O)cc4)cc3)oc2c1` (stereo not shown) [Example 158, 5-ethyl-6-{2-[4-(4-methanesulphonyl-benzoxy)-phenyl]-benzoxazol-6-yl}-4,5-dihydro-2H-pyridazin-3-one], the EC50 was 1960 nM.

On to `CCC1CC(=O)NN=C1c1ccc2nc(-c3ccc(OCCN4CCCC4)cc3)oc2c1` (stereo not shown) [Example 159, 5-ethyl-6-{2-[4-(2-pyrrolidin-1-yl-ethoxy)-phenyl]-benzoxazol-6-yl}-4.5-dihydro-2H-pyridazin-3-one], for which it took 623 nM to reach a half-maximal effect (EC50).

The compound `CCC1CC(=O)NN=C1c1ccc2nc(-c3ccc(OCCN(CC(C)C)CC(C)C)cc3)oc2c1` (stereo not shown) [Example 160, 6-{2-[4-(2-diisobulylamino-ethoxy)-phenyl]-benzoxazol-6-yl}-5-ethyl-4,5-dihydro-2H-pyridazin-3-one] came in with an EC50 of 124 nM.

`CCC1CC(=O)NN=C1c1ccc2nc(-c3ccc(OCCCN4CCCCC4)cc3)oc2c1` (stereo not shown) [Example 161, 5-ethyl-6-{2-[4-(3-piperidin-1-yl-propoxy)-phenyl]-benzoxazol-6-yl}-4,5-dihydro-2H-pyridazin-3-one x HCl] gave an EC50 of 293 nM. Compared with the last compound, the EC50 is about 2.4-fold higher.

For the compound `CCC1CC(=O)NN=C1c1ccc2nc(-c3ccc(OCCN4CCN(C(C)=O)CC4)cc3)oc2c1` (stereo not shown) [Example 162, 6-(2-{4-[2-(4-acetyl-piperazin-1-yl)-ethoxy]-phenyl}-benzoxazol-6-yl)-5-ethyl-4,5-dihydro-2H-pyridazin-3-one], it took 9120 nM to reach a half-maximal effect (EC50).

In turn, `CCC1CC(=O)NN=C1c1ccc2nc(-c3ccc(OCCN4CCC(C#N)CC4)cc3)oc2c1` (stereo not shown) [Example 163, 1-(2-{4-[6-(4-ethyl-6-oxo-1,4,5,6-tetrahydro-pyridazin-3-yl)-benzoxazol-2-yl]-phenoxy}-ethyl)-piperidin-4-carbonitrile] registered an EC50 of 97 nM.

`CCC1CC(=O)NN=C1c1ccc2nc(-c3ccc(OCCN4C[C@H]5CC[C@@H]4C5)cc3)oc2c1` (stereo partly shown) [Example 164, 6-(2-{4-[2-(2-aza-bicyclo[2.2.1]-hept-2-yl)-ethoxy]-phenyl}-benzoxazol-6-yl)-5-ethyl-4,5-dihydro-2H-pyridazin-3-one] gave an EC50 of 552 nM.

Turning to `CCC1CC(=O)NN=C1c1ccc2nc(-c3ccc(OCCN4CCN(C(=O)OC(C)(C)C)CC4)cc3)oc2c1` (stereo not shown) [Example 165, terl-butyl 4-(2-{4-[6-(4-ethyl-6-oxo-1,4,5,6-tetrahydro-pyridazin-3-yl)-benzoxazol-2-yl]-phenoxy}-ethyl)-piperazine-1-carboxylate], the EC50 was 118 nM. Compared with the last compound, the EC50 is about 4.7-fold lower.

`CCC1CC(=O)NN=C1c1ccc2nc(-c3ccc(OCCN4CCN(C(C)CC)CC4)cc3)oc2c1` (stereo not shown) [Example 166, 6-(2-{4-[2-(4-sec-butyl-piperazin-1-yl)-ethoxy]-phenyl}-benzoxazol-6-yl)-5-ethyl-4,5-dihydro-2H-pyridazin-3-one]: the EC50 came out at 621 nM.

Turning to `CCC1CC(=O)NN=C1c1ccc2nc(-c3ccc(OCCN4CCCC4=O)cc3)oc2c1` (stereo not shown) [Example 167, 5-ethyl-6-(2-{4-[2-(2-oxo-pyrrolidin-1-yl)-ethoxy]-phenyl}-benzoxazol-6-yl)-4,5-dihydro-2H-pyridazin-3-one], a half-maximal effect (EC50) was put at 1030 nM.
